Assay results as given in article PMC12155096 (International Journal of Molecular Sciences, 2025).
Like-named read-outs stand apart in the source and are kept apart here.

Legend:
[1] = biological target: CYP3A4 (Homo sapiens, UniProt P08684); test: biochemical
[2] = biological target: human CYP2D6 (Homo sapiens, UniProt P10635)
[3] = biological target: T1, human CYP1A2 (Homo sapiens, UniProt P05177); test: biochemical
T1 sequence (P05177 1-516): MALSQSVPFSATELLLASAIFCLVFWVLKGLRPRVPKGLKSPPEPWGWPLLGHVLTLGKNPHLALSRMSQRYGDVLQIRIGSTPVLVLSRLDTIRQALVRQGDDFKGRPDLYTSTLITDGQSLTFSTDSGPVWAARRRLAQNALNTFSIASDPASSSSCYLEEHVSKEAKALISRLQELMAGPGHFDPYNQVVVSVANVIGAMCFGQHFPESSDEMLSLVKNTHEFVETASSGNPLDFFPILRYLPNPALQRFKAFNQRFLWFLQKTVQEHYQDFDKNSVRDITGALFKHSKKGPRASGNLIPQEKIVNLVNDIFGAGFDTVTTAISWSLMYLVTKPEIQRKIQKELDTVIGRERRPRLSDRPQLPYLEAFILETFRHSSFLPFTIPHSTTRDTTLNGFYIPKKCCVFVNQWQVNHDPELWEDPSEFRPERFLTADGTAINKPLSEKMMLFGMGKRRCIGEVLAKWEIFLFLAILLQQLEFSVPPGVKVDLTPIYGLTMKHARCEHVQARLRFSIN

[4] = biological target: T2, human CYP2C19 (Homo sapiens, UniProt P33261); test: biochemical; conditions: CYP2C19 AC50 (half-maximal activity concentration)
T2 sequence (P33261 whole entry): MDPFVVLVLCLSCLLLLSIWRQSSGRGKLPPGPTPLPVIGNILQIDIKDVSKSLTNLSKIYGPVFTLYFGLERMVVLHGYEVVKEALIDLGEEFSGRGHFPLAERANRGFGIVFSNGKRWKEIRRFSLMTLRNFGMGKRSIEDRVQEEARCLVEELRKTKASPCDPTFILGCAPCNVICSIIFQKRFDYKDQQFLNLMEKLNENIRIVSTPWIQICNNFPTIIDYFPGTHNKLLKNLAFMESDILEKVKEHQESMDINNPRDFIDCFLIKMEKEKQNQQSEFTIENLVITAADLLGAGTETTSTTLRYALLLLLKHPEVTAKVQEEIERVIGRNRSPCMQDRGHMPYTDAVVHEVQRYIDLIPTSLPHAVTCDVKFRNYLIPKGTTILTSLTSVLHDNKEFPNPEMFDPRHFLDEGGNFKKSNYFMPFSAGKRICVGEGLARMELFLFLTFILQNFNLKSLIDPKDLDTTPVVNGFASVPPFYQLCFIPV

[5] = biological target: T3, human CYP2C9 (Homo sapiens, UniProt P11712); test: biochemical
T3 sequence (P11712 whole entry): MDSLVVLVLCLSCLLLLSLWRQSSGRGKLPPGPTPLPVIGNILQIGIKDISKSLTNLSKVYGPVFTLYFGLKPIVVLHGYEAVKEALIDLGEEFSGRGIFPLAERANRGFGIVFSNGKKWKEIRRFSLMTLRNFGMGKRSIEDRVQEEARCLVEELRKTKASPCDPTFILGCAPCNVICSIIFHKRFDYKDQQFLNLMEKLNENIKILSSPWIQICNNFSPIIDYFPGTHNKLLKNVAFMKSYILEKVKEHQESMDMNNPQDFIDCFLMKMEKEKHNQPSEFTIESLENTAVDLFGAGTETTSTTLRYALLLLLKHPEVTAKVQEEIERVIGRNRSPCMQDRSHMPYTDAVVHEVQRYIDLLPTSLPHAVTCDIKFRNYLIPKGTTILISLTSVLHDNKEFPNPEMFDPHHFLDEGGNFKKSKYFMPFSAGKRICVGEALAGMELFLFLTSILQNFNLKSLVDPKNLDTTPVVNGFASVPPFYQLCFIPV

[6] = biological target: T2, human CYP2C19
[7] = biological target: T1, human CYP1A2
[8] = biological target: T3, human CYP2C9
[9] = CYP3A4 AC50 (half-maximal activity concentration)
[10] = CYP1A2 AC50 (half-maximal activity concentration)
[11] = CYP2C9 AC50 (half-maximal activity concentration)

Sequence of CYP3A4 (P08684 whole entry): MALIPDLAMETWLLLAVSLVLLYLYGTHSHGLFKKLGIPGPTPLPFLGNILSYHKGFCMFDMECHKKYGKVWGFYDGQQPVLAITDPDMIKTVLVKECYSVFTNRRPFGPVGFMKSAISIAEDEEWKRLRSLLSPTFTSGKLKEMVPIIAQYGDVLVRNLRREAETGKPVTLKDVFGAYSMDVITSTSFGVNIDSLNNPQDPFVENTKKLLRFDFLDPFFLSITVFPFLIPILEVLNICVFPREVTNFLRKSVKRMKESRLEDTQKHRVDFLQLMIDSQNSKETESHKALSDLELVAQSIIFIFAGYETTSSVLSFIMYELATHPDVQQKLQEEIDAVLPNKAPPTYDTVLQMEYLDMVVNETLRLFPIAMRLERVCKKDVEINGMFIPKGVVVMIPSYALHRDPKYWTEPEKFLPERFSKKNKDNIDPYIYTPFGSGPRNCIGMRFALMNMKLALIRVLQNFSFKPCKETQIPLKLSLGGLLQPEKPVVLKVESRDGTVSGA
Sequence of human CYP2D6 (P10635 whole entry): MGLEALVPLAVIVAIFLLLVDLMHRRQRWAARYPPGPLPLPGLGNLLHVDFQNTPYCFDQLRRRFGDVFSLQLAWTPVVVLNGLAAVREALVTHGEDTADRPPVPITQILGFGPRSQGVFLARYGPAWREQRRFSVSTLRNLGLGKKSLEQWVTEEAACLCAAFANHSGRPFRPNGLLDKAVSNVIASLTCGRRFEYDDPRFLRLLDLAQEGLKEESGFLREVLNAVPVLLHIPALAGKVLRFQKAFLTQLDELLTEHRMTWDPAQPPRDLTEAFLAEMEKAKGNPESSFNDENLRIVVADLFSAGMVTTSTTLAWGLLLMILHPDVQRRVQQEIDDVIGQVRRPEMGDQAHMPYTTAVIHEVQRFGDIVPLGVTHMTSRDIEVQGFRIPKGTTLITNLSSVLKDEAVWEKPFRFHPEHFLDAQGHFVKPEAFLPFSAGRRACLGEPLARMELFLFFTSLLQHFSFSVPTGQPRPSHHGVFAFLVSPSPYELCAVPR

| SMILES | AC50 [1, 9] [µM] | CYP2D6 AC50 (half-maximal activity concentration) [2] | AC50 [3, 10] [µM] | AC50 [4] [µM] | AC50 [5, 11] [µM] | CYP2C19 AC50 (half-maximal activity concentration) [6] | AC50 [1] [µM] | AC50 [3] [µM] | AC50 [5] [µM] | CYP1A2 AC50 (half-maximal activity concentration) [7] | CYP2C9 AC50 (half-maximal activity concentration) [8] |
| --- | --- | --- | --- | --- | --- | --- | --- | --- | --- | --- | --- |
| Cc1c(C)c([N+](=O)[O-])c(C(C)(C)C)c([N+](=O)[O-])c1C | 12.2 | Inactive | 17.5 | 22.8 | 51.7 |  |  |  |  |  |  |
| CC=CC(=O)N(CC)c1ccccc1C (mixture of isomers) [Crotamiton] | 7.51 | Inactive | 31.4 |  | 40.1 | Inconclusive inhibitor |  |  |  |  |  |
| CCCCCCCCCCCCN1CCCC1=O [1-Dodecyl-2-pyrrolidinone] |  | Inactive |  |  |  | Inconclusive inhibitor | 9.84 | 29.7 | 37.9 |  |  |
| Oc1c(Cl)cc(Cl)c(Cl)c1Cl [2,3,4,6-Tetrachlorophenol] | 67 | Inactive | 57.1 |  | 28.3 | Inactive |  |  |  |  |  |
| Oc1c(Cl)c(Cl)cc(Cl)c1Cl [2,3,5,6-Tetrachlorophenol] | 58.1 | Inactive | 66.6 |  | 22.7 | Inconclusive inhibitor |  |  |  |  |  |
| O=C(O)c1cc(I)cc(I)c1I [2,3,5-Triiodobenzoic acid] | 75.1 | Inactive | 57.3 |  | 20.9 | Inconclusive inhibitor |  |  |  |  |  |
| Oc1c(Cl)ccc(Cl)c1Cl [2,3,6-Trichlorophenol] | 55.4 | Inconclusive inhibitor | 37 |  | 35.7 | Inconclusive inhibitor |  |  |  |  |  |
| CCCCCCCCCC(C)C=O (stereo not shown) [2-Methylundecanal] | 87.3 | Inactive | 74.2 |  | 65.1 | Inconclusive inhibitor |  |  |  |  |  |
| Oc1nc(Cl)c(Cl)cc1Cl [3,5,6-Trichloro-2-pyridinol] | 65.8 | Inconclusive inhibitor | 47.9 |  | 45.4 | Inconclusive inhibitor |  |  |  |  |  |
| CCNc1nc(NC(C)C)nc(SC)n1 [Ametryn] | 29.2 | Inactive | 9.81 |  | 20.8 | Inconclusive inhibitor |  |  |  |  |  |
| O=C(NC(=O)c1c(F)cccc1F)Nc1cc(Cl)c(Oc2ncc(C(F)(F)F)cc2Cl)c(Cl)c1 [Chlorfluazuron] | 9.2 | Inactive |  |  |  | Inconclusive inhibitor |  |  |  | Inactive | Inconclusive inhibitor |
| CCSC(=O)N(CC)C1CCCCC1 [Cycloate] | 31.7 | Inactive |  |  |  | Inconclusive inhibitor |  |  |  | Inactive | Inconclusive inhibitor |
| N#Cc1c(Cl)cccc1Cl [Dichlobenil] | 17.8 | Inactive |  |  |  | Inactive |  |  |  | Inconclusive inhibitor | Inconclusive inhibitor |
| CCOC(=O)CCCCCCCCC(=O)OCC [Diethyl decanedioate] | 26.2 | Inactive | 35.2 |  | 42.2 | Inconclusive inhibitor |  |  |  |  |  |
| CCC(C)c1cc([N+](=O)[O-])cc([N+](=O)[O-])c1O (stereo not shown) [Dinoseb] | 33.9 |  | 58.1 | 76.8 |  |  |  |  |  |  |  |
| CC(C)(C)c1cc([N+](=O)[O-])cc([N+](=O)[O-])c1O [Dinoterb] | 24.7 | Inconclusive inhibitor | 48 |  | 17.8 | Inconclusive inhibitor |  |  |  |  |  |
| C[C@]12CC[C@@H]3c4ccc(OC(=O)N(CCCl)CCCl)cc4CC[C@H]3[C@@H]1CC[C@@H]2O [Estramustine] | 16.9 | Inactive |  |  |  | Inactive |  |  |  | Inactive | Inactive |
| CCC1(c2ccccc2)CCC(=O)NC1=O (stereo not shown) [Glutethimide] | 26 | Inactive |  |  |  | Inconclusive inhibitor |  |  |  | Inactive | Inconclusive inhibitor |
| C[C@@H]1CC[C@@]2(OC1)O[C@H]1C[C@H]3[C@@H]4CC[C@H]5C[C@@H](O)CC[C@]5(C)[C@H]4CC(=O)[C@]3(C)[C@H]1[C@@H]2C [Hecogenin] | 0.98 | Inactive |  |  |  | Inactive |  |  |  | Inactive | Inactive |
| O=C(O)CCCc1c[nH]c2ccccc12 [Indole-3-butyric acid] | 13.4 | Inactive |  |  |  | Inconclusive inhibitor |  |  |  | Inactive | Inactive |
| O=C(CCOCCOCCOCCOCCC(=O)Nc1c(I)cc(I)c(C(=O)O)c1I)Nc1c(I)cc(I)c(C(=O)O)c1I [Iodoxamic Acid] |  | Inactive |  |  |  | Inactive | 5.65 ± 2.66 |  |  | Inactive | Inactive |
| Oc1c(Br)c(Br)c(Br)c(Br)c1Br [Pentabromophenol] | 70.2 | Inactive | 57.8 |  | 30.1 | Inconclusive |  |  |  |  |  |
| Oc1c(Cl)c(Cl)c(Cl)c(Cl)c1Cl [Pentachlorophenol] | 54.4 | Inactive | 67.4 | 52.3 |  |  |  |  |  |  |  |
| O=C(Oc1ccccc1)c1ccccc1 [Phenyl benzoate] |  | Inactive |  |  |  | Inactive | 58.7 | 71 | 62.1 |  |  |
| CC(=O)[C@H]1[C@H](C#N)C[C@H]2[C@@H]3CC=C4C[C@@H](O)CC[C@]4(C)[C@H]3CC[C@@]21C [Pregnenolone carbonitrile] | 2.22 | Inactive |  |  |  | Inactive |  |  |  | Inactive | Inconclusive inhibitor |
| O=C1OC(=O)c2c(Cl)c(Cl)c(Cl)c(Cl)c21 [Tetrachlorophthalic anhydride] | 34.7 | Inconclusive inhibitor |  | 89.4 |  |  |  |  |  | Inactive | Inactive |
